Assay results taken from patent US20250230193A1, “CYCLIC COMPOUND HAVING SELECTIVE KRAS INHIBITORY EFFECT ON HRAS AND NRAS” (CHUGAI SEIYAKU KABUSHIKI KAISHA, priority 2022, published 2025).

Tests used:
[1] = target: GDP-bound NRAS wild-type protein (Homo sapiens, UniProt P01111); experiment: Binding to NRAS by surface plasmon resonance (SPR), Single Cycle Kinetics; conditions: SPR; KD ratio class
[2] = tested on: human lung cancer strain NCI-H441; experiment: cells; conditions: NCI-H441, 96 h, read-out: NCI-H441 IC50 (nM)
[3] = target: GDP-bound HRAS wild-type protein (Homo sapiens, UniProt P01112); experiment: Binding to HRAS by surface plasmon resonance (SPR), Single Cycle Kinetics; conditions: SPR; KD ratio class
Sequence of GDP-bound HRAS wild-type protein (P01112 whole entry): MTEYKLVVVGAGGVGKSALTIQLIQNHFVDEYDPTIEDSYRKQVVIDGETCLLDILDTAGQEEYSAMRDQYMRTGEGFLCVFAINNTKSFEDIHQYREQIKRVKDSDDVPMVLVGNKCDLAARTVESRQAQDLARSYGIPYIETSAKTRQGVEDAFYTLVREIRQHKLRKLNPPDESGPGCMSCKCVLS

Sequence of GDP-bound NRAS wild-type protein (P01111 whole entry): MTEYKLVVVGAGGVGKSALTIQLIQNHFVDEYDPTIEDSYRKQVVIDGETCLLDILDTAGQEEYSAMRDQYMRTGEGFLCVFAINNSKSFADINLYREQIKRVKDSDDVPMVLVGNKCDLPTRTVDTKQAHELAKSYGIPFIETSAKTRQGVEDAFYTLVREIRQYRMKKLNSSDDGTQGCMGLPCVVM

Compound | IC50 [2] | NRAS/KRAS (ratio of KD value for GDP-bound NRAS wild-type protein to KD value for KRAS) [1] | HRAS/KRAS (ratio of KD value for GDP-bound HRAS wild-type protein to KD value for KRAS) [3]
CCO[C@@H]1C[C@H]2C(=O)NC3(CCC3)C(=O)N(C)[C@@H](C(CC)CC)C(=O)N(C)[C@H](C(=O)N(C)C)CC(=O)N(C)[C@@H](C)C(=O)N[C@@H]([C@@H](C)CC)C(=O)N(C)CC(=O)N(C)[C@H]3C/C=C\CCN(C3=O)[C@@H](Cc3ccc(C(F)(F)F)cc3)C(=O)N(C)CC(=O)N[C@@H](CCc3ccc4sccc4c3)C(=O)N2C1 [PP1222] | 301 nM | A (a compound having 10 or more and less than 20 is denoted as A) | A (a compound having 10 or more and less than 20 is denoted as A)
CCC[C@H]1C(=O)N[C@@H]([C@@H](C)CC)C(=O)N(C)CC(=O)N(C)[C@H]2C/C=C\CCN(C2=O)[C@@H](Cc2ccc(C(F)(F)F)cc2)C(=O)N(C)CC(=O)N[C@@H](CCc2ccc3sccc3c2)C(=O)N2C[C@H](OCC)C[C@H]2C(=O)NC2(CCC2)C(=O)N(C)[C@@H](C(CC)CC)C(=O)N(C)[C@H](C(=O)N(C)C)CC(=O)N1C [PP1224] | 122 nM | A (a compound having 10 or more and less than 20 is denoted as A) | A (a compound having 10 or more and less than 20 is denoted as A)
CCCCCC[C@H]1C(=O)N[C@@H]([C@@H](C)CC)C(=O)N(C)CC(=O)N(C)[C@H]2C/C=C\CCN(C2=O)[C@@H](Cc2ccc(C(F)(F)F)cc2)C(=O)N(C)CC(=O)N[C@@H](CCc2ccc3sccc3c2)C(=O)N2C[C@H](OCC)C[C@H]2C(=O)NC2(CCC2)C(=O)N(C)[C@@H](C(CC)CC)C(=O)N(C)[C@H](C(=O)N(C)C)CC(=O)N1C [PP1226] | 106 nM | AA (a compound having 20 or more is denoted as AA) | A (a compound having 10 or more and less than 20 is denoted as A)
CCO[C@@H]1C[C@H]2C(=O)NC3(CCC3)C(=O)N(C)[C@@H](C(CC)CC)C(=O)N(C)[C@H](C(=O)N(C)C)CC(=O)N(C)[C@@H](CC3CC3)C(=O)N[C@@H]([C@@H](C)CC)C(=O)N(C)CC(=O)N(C)[C@H]3C/C=C\CCN(C3=O)[C@@H](Cc3ccc(C(F)(F)F)cc3)C(=O)N(C)CC(=O)N[C@@H](CCc3ccc4sccc4c3)C(=O)N2C1 [PP1227] | 128 nM | A (a compound having 10 or more and less than 20 is denoted as A) | A (a compound having 10 or more and less than 20 is denoted as A)
CCO[C@@H]1C[C@H]2C(=O)NC3(CCC3)C(=O)N(C)[C@@H](C(CC)CC)C(=O)N(C)[C@H](C(=O)N(C)C)CC(=O)N(C)[C@@H](COC)C(=O)N[C@@H]([C@@H](C)CC)C(=O)N(C)CC(=O)N(C)[C@H]3C/C=C\CCN(C3=O)[C@@H](Cc3ccc(C(F)(F)F)cc3)C(=O)N(C)CC(=O)N[C@@H](CCc3ccc4sccc4c3)C(=O)N2C1 [PP1229] | 144 nM | A (a compound having 10 or more and less than 20 is denoted as A) | A (a compound having 10 or more and less than 20 is denoted as A)
CCO[C@@H]1C[C@H]2C(=O)NC3(CCC3)C(=O)N(C)[C@@H](C3CCCC3)C(=O)N(C)[C@@H](C(=O)N(C)C)CC(=O)N(C)[C@@H](CC)C(=O)N[C@@H]([C@@H](C)CC)C(=O)N(C)CC(=O)N(C)[C@H]3C/C=C\CCN(C3=O)[C@@H](Cc3ccc(C(F)(F)F)cc3)C(=O)N(C)CC(=O)N[C@@H](CCc3cc(F)c(C(F)(F)F)c(F)c3)C(=O)N2C1 [PP1234] | 398 nM | B (a compound having 3 or more and less than 10 is denoted as B) | C (A compound having a KD ratio of 0.1 or more and less than 3 is denoted as C)
CCO[C@@H]1C[C@H]2C(=O)NC3(CCC3)C(=O)N(C)[C@@H](C3CCCC3)C(=O)N(C)[C@@H](C(=O)N(C)C)CC(=O)N(C)[C@@H](CC3CCCC3)C(=O)N[C@@H]([C@@H](C)CC)C(=O)N(C)CC(=O)N(C)[C@H]3C/C=C\CCN(C3=O)[C@@H](Cc3ccc(C(F)(F)F)cc3)C(=O)N(C)CC(=O)N[C@@H](CCc3cc(F)c(C(F)(F)F)c(F)c3)C(=O)N2C1 [PP1235] | 386 nM | B (a compound having 3 or more and less than 10 is denoted as B) | C (A compound having a KD ratio of 0.1 or more and less than 3 is denoted as C)
CCO[C@@H]1C[C@H]2C(=O)NC3(CCC3)C(=O)N(C)[C@@H](C3CCCC3)C(=O)N(C)[C@H](C(=O)N(C)C)CC(=O)N(C)[C@@H](CC)C(=O)N[C@@H]([C@@H](C)CC)C(=O)N(C)CC(=O)N(C)[C@H]3C/C=C\CCN(C3=O)[C@@H](Cc3ccc(C(F)(F)F)cc3)C(=O)N(C)CC(=O)N[C@@H](CCc3ccc(Cl)c(Cl)c3)C(=O)N2C1 [PP1249] | 55.4 nM | A (a compound having 10 or more and less than 20 is denoted as A) | A (a compound having 10 or more and less than 20 is denoted as A)
CCC[C@H]1C(=O)N[C@@H]([C@@H](C)CC)C(=O)N(C)CC(=O)N(C)[C@H]2C/C=C\CCN(C2=O)[C@@H](Cc2ccc(C(F)(F)F)cc2)C(=O)N(C)CC(=O)N[C@@H](CCc2ccc(Cl)c(Cl)c2)C(=O)N2C[C@H](OCC)C[C@H]2C(=O)NC2(CCC2)C(=O)N(C)[C@@H](C2CCCC2)C(=O)N(C)[C@H](C(=O)N(C)C)CC(=O)N1C [PP1250] | 18.7 nM | AA (a compound having 20 or more is denoted as AA) | A (a compound having 10 or more and less than 20 is denoted as A)

The next lines start with results.

IC50 [2] | Compound | NRAS/KRAS (ratio of KD value for GDP-bound NRAS wild-type protein to KD value for KRAS) [1] | HRAS/KRAS (ratio of KD value for GDP-bound HRAS wild-type protein to KD value for KRAS) [3]
117 nM | CCO[C@@H]1C[C@H]2C(=O)NC3(CCC3)C(=O)N(C)[C@@H](C(CC)CC)C(=O)N(C)[C@H](C(=O)N(C)C)CC(=O)N(C)[C@@H](CC)C(=O)N[C@@H]([C@@H](C)CC)C(=O)N(C)CC(=O)N(C)[C@H]3C/C=C\CCN(C3=O)[C@@H](Cc3ccc(C(F)(F)F)cc3)C(=O)N(C)CC(=O)N[C@@H](CCc3ccc4sccc4c3)C(=O)N2C1 [PP1223] | AA (a compound having 20 or more is denoted as AA) | A (a compound having 10 or more and less than 20 is denoted as A)
92.5 nM | CCO[C@@H]1C[C@H]2C(=O)NC3(CCC3)C(=O)N(C)[C@@H](C(CC)CC)C(=O)N(C)[C@H](C(=O)N(C)C)CC(=O)N(C)[C@@H](CC(C)C)C(=O)N[C@@H]([C@@H](C)CC)C(=O)N(C)CC(=O)N(C)[C@H]3C/C=C\CCN(C3=O)[C@@H](Cc3ccc(C(F)(F)F)cc3)C(=O)N(C)CC(=O)N[C@@H](CCc3ccc4sccc4c3)C(=O)N2C1 [PP1225] | AA (a compound having 20 or more is denoted as AA) | A (a compound having 10 or more and less than 20 is denoted as A)
110 nM | CCO[C@@H]1C[C@H]2C(=O)NC3(CCC3)C(=O)N(C)[C@@H](C(CC)CC)C(=O)N(C)[C@H](C(=O)N(C)C)CC(=O)N(C)[C@@H](CC)C(=O)N[C@@H]([C@@H](C)CC)C(=O)N(C)CC(=O)N(C)[C@H]3C/C=C\CCN(C3=O)[C@@H](Cc3ccc(C(F)(F)F)cc3)C(=O)N(C)CC(=O)N[C@@H](CCc3cc(F)c(Cl)c(F)c3)C(=O)N2C1 [PP1230] | A (a compound having 10 or more and less than 20 is denoted as A) | A (a compound having 10 or more and less than 20 is denoted as A)
23.1 nM | CCC[C@H]1C(=O)N[C@@H]([C@@H](C)CC)C(=O)N(C)CC(=O)N(C)[C@H]2C/C=C\CCN(C2=O)[C@@H](Cc2ccc(C(F)(F)F)cc2)C(=O)N(C)CC(=O)N[C@@H](CCc2cc(F)c(Cl)c(F)c2)C(=O)N2C[C@H](OCC)C[C@H]2C(=O)NC2(CCC2)C(=O)N(C)[C@@H](C(CC)CC)C(=O)N(C)[C@H](C(=O)N(C)C)CC(=O)N1C [PP1231] | AA (a compound having 20 or more is denoted as AA) | A (a compound having 10 or more and less than 20 is denoted as A)
59.7 nM | CCO[C@@H]1C[C@H]2C(=O)NC3(CCC3)C(=O)N(C)[C@@H](C(CC)CC)C(=O)N(C)[C@H](C(=O)N(C)C)CC(=O)N(C)[C@@H](CC(C)C)C(=O)N[C@@H]([C@@H](C)CC)C(=O)N(C)CC(=O)N(C)[C@H]3C/C=C\CCN(C3=O)[C@@H](Cc3ccc(C(F)(F)F)cc3)C(=O)N(C)CC(=O)N[C@@H](CCc3cc(F)c(Cl)c(F)c3)C(=O)N2C1 [PP1232] | A (a compound having 10 or more and less than 20 is denoted as A) | A (a compound having 10 or more and less than 20 is denoted as A)
34.7 nM | CCO[C@@H]1C[C@H]2C(=O)NC3(CCC3)C(=O)N(C)[C@@H](C(CC)CC)C(=O)N(C)[C@H](C(=O)N(C)C)CC(=O)N(C)[C@@H](CC3CC3)C(=O)N[C@@H]([C@@H](C)CC)C(=O)N(C)CC(=O)N(C)[C@H]3C/C=C\CCN(C3=O)[C@@H](Cc3ccc(C(F)(F)F)cc3)C(=O)N(C)CC(=O)N[C@@H](CCc3cc(F)c(Cl)c(F)c3)C(=O)N2C1 [PP1233] | AA (a compound having 20 or more is denoted as AA) | A (a compound having 10 or more and less than 20 is denoted as A)
